From patent US20260083750A1, “SMALL MOLECULE INHIBITORS OF KRAS PROTEINS” (MERCK SHARP & DOHME LLC, priority 2022, published 2026)
pIC50: −log10 of the molar value.

Columns and labels:
[1] = system: PANC08.13 cells (homozygous KRAS-G12D activating mutation); assay: Cellular phospho-ERK assay in G12D cell line; assay type: cell-based; conditions: Homo sapiens, PANC-08-13, 2 hours compound incubation, ratio of p-ERK vs. total ERK, read-out: PANC 0813 pERK IC50
Protocol: (§1) Procedure for Cellular Phospho-ERK Assay in G12D and G12V Cell Lines
(§2) PANC08.13 cells (ATCC® CRL-2551™), containing homozygous KRAS-G12D activating mutation, were cultured in growth medium made of RPMI1640-GlutaMAX™—I (ThermoFisher Scientific 61870) containing 15% heat inactivated fetal bovine serum (ThermoFisher Scientific 10091148)). SW620 cells (ATCC® […]), containing homozygous KRAS-G12V activating mutation, were cultured in growth medium that contains RPMI 1640-GlutaMAX™—I (ThermoFisher Scientific 61870) containing 10% heat inactivated fetal bovine serum (ThermoFisher Scientific 10091148).
(§3) Cells for the assay were harvested in growth medium after TrypLE (ThermoFisher scientific 12604021) digestion and were seeded in a 384-well collagen coated cell culture plate (Corning 356702) at a density of 10,000-15,000 cells/20 uL/well, and incubated at 37° C., 5% CO2 overnight. The compound (with 10 mM stock concentration) dose-response titrations were prepared [30 μM final ERK detection assay concentration and 1:3 dilutions, 10-point dose response] and appropriate amounts (270 nL) of test compounds were dispensed in a 384-well intermediate plate using an Echo 550 liquid handler. 30 uL/well of RPMI medium 1640-GlutaMAX™—I was added to the intermediate plate and the contents of the intermediate plate (10 uL/well) were then transferred to the 384-well collagen coated cell culture plate, which was incubated at 37° C., 5% CO2 for 2 hours. After removal of medium from the collagen coated cell culture plate, cells were lysed in lysis buffer from Alpha SureFire® Ultra™ Multiplex p-ERK and total ERK assay kit (PerkinElmer MPSU-PTERK) containing Halt™ Protease and Phosphatase inhibitor cocktail (ThermoFisher Scientific 78446) at room temperature with constant shaking at 300 rpm for 30 minutes. The cell lysates were then transferred to an OptiPlate-384 plate (PerkinElmer 6005620), and the phosphorylation of ERK (p-ERK) and total ERK levels were detected by Alpha SureFire® Ultra™ Multiplex p-EEK kit and total ERK assay kit (PerkinElmer MPSU-PTERK) following the manufacturer's protocol. Assay plates were read on a EnVision Multimode Plate Reader (PerkinElmer), and the ratio of p-ERK vs. total ERK in each well was used as the final readout. Dose response curves were analyzed using a 4-parameter logistic model to calculate IC50 values using Spotfire software.

[2] = biological target: T1, KRAS-G13D (Homo sapiens, UniProt P01116, G13D); assay: SOS-catalyzed nucleotide exchange assay (Procedure A, TR-FRET); assay type: biochemical; conditions: 60 min preincubation, GTP, read-out: KRAS G13D GNE IC50
T1 construct: N-terminal biotin-acceptor peptide […]
Description: (§4) Procedure for SOS-Catalyzed Nucleotide Exchange Assay for KRAS-G12C/D/V, G13D, HRAS, and NRAS (Procedure A)
(§5) Recombinant KRAS-G12C protein used in this assay has an additional triple mutation (C51S/C80L/C118S), whereas KRAS-G12D/V, G13D, HRAS and NRAS are in context of their WT protein sequence background. Specifically, the SOS-catalyzed nucleotide exchange assay utilizes a preformed TR-FRET complex containing a specific biotinylated RAS protein (KRAS-G12C/V/D, G13D, HRAS, NRAS; described above) with Bodipy-GDP, and Terbium-streptavidin. Compounds are preincubated with this complex for 60 minutes. Subsequently, recombinant human SOS protein and unlabeled GTP are added to initiate the exchange reaction. Small molecule inhibitors stabilize the Bodipy-GDP complex whereas the untreated protein rapidly exchanges Bodipy-GDP for unlabeled GTP resulting in reduced TR-FRET signal.
(§6) To assemble the preformed TR-FRET complexes, each biotinylated RAS protein is diluted to 2 μM in an EDTA Buffer (20 mM HEPES pH 7.5, 50 mM sodium chloride, 10 mM EDTA, and 0.01% Tween) and incubated at room temperature for one hour. This mixture is then further diluted to 90 nM in an Assay Buffer (20 mM HEPES pH 7.5, 150 mM sodium chloride, 10 mM magnesium chloride, and 0.005% Tween) containing 15 nM of Terbium-Streptavidin (Invitrogen, catalog #PV3577) and 900 nM of Bodipy-GDP (Invitrogen, catalog #G22360) and incubated at room temperature for six hours. It should be noted that this preformed TR-FRET complex for each of the RAS protein were made ahead of time, aliquoted and stored at −80° C. until the day of the experiment.
(§7) Each test compound (10 mM stock in DMSO) is diluted in DMSO to make a final-10-point, 3-fold dilution and is acoustically dispensed into a 384-well assay plate (Corning, catalog #3820) using an Echo 550 (Labcyte). Each well of the assay plate receives 3 μL of a specific 3× RAS preformed TR-FRET complex and 3 μL of Assay Buffer and is incubated at room temperature for 60 minutes (preincubation time). Each well then receives 3 μL of 3× recombinant human SOS protein and GTP (Sigma, G8877) in Assay Buffer and is incubated at room temperature for 30 minutes (G13D), 60 minutes (G12C/D, H/NRAS) or 90 minutes for G12V. The final reaction in each well of […] consists of 3 mM GTP, specific Ras and SOS proteins in the following concentrations: KRAS-G12C/SOS=3 nM/40 nM, KRAS-G12D/SOS=1 nM/40 nM, KRAS-G12V/SOS=1.25 nM/160 nM, KRAS-G13D/SOS=1.25 nM/0 nM, HRAS & NRAS=1.25 nM/40 nM.
(§8) The time-resolved fluorescence resonance energy transfer (TR-FRET) signal is measured on an Envision (PerkinElmer) plate reader: Excitation filter=340 nm; emission1=495 nm; emission2=520 nm; dichroic mirror=D400/D505; delay time=[…]. The signal of each well is determined as the ratio of the emission at 520 nm to that at 495 nm. […] The apparent effect as a function of compound concentration is fit to a four-parameter logistic equation.

[3] = biological target: T2, KRAS-G12D (Homo sapiens, UniProt P01116, G12D); assay: as above; assay type: biochemical; conditions: 60 min preincubation, SOS + GTP, read-out: KRAS G12D GNE IC50
T2 construct: N-terminal biotin-acceptor peptide […]
Description: as §4, §5, §6, §7, §8

[4] = biological target: T3, KRAS-G12C (C51S/C80L/C118S) (Homo sapiens, UniProt P01116, C118S/C51S/C80L/G12C); assay: as above; assay type: biochemical; conditions: 60 min preincubation, SOS + GTP, read-out: KRAS G12C GNE IC50
T3 construct: N-terminal biotin-acceptor peptide […]
Description: as §4, §5, §6, §7, §8

[5] = biological target: T4, KRAS-G12V (Homo sapiens, UniProt P01116, G12V); assay: as above; assay type: biochemical; conditions: 60 min preincubation, SOS + GTP, read-out: KRAS G12V GNE IC50
T4 construct: N-terminal biotin-acceptor peptide […]
Description: as §4, §5, §6, §7, §8

[6] = biological target: NRAS (Homo sapiens, UniProt P01111); assay: as above; assay type: biochemical; conditions: 60 min preincubation, SOS + GTP, read-out: NRAS GNE IC50
Description: as §4, §5, §6, §7
(§9) The time-resolved fluorescence resonance energy transfer (TR-FRET) signal is measured on an Envision (PerkinElmer) plate reader: Excitation filter=340 nm; emission1=495 nm; emission2=520 nm; dichroic mirror=D400/D505; delay time=[…]. The signal of each well is determined as the ratio of the emission at 520 nm to that at 495 nm. Percent effect of each well is determined after normalization to control wells containing DMSO (no effect) or a saturating concentration of inhibitor (max effect). The apparent effect as a function of compound concentration is fit to a four-parameter logistic equation.

[7] = biological target: HRAS (Homo sapiens, UniProt P01112); assay: as above; assay type: biochemical; conditions: 60 min preincubation, SOS + GTP, read-out: HRAS GNE IC50
Description: as §4, §5, §6, §7, §9

[8] = system: SW620 cells (homozygous KRAS-G12V activating mutation); assay: Cellular phospho-ERK assay in G12V cell line; assay type: cell-based; conditions: Homo sapiens, SW-620, 2 hours compound incubation, ratio of p-ERK vs. total ERK, read-out: SW620 pERK IC50
Protocol: as §1, §2, §3

T3 sequence (P01116 with tags, fused parts or gaps isoform P01116-2 G12C/C51S/C80L/C118S): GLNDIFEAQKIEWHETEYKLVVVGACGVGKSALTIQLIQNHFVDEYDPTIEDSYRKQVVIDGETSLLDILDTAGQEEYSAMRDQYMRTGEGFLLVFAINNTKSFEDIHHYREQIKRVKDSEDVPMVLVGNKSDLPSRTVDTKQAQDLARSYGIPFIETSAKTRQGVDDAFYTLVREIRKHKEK
Chain of HRAS (P01112 with tags, fused parts or gaps): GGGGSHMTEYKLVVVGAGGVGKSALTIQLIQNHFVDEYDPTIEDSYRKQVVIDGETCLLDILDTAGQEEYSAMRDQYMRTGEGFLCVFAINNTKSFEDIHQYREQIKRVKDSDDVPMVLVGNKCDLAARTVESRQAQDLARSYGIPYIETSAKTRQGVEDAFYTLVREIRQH
T1 sequence (P01116 with tags, fused parts or gaps isoform P01116-2 G13D): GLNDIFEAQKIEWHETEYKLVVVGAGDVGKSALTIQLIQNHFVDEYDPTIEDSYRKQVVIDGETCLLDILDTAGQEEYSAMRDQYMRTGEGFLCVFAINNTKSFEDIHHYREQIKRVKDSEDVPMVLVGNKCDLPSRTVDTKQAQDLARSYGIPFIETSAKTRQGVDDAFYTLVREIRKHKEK
Chain of NRAS (P01111 with tags, fused parts or gaps): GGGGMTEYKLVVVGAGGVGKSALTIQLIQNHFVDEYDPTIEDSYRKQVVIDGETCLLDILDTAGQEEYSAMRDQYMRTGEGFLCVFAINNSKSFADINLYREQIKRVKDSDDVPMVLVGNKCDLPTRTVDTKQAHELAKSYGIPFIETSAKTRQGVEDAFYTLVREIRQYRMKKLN
T4 sequence (P01116 with tags, fused parts or gaps isoform P01116-2 G12V): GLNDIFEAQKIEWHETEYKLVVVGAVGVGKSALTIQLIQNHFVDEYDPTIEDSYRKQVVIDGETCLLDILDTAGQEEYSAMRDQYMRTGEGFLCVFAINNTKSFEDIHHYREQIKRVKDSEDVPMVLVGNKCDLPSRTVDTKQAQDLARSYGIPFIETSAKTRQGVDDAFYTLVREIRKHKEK
T2 sequence (P01116 with tags, fused parts or gaps isoform P01116-2 G12D): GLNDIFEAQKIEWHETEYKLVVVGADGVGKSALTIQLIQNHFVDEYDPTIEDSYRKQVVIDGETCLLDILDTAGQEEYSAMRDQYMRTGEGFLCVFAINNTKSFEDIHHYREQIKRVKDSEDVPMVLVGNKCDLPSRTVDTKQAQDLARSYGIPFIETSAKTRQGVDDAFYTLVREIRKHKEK

SMILES	pIC50 [1]	pIC50 [2]	pIC50 [3]	pIC50 [4]	pIC50 [5]	pIC50 [6]	pIC50 [7]	pIC50 [8]
C[C@@H]1CCCCCN1c1nc(OC[C@@]23CCCN2C[C@H](F)C3)nc2c(F)c(-c3ccc(F)c4sc(N)c(C#N)c34)c(Cl)cc12 [Ex. 2, 2-amino-4-(6-chloro-8-fluoro-2-(((2R,7aS)-2-fluorotetrahydro-1H-pyrrolizin-7a(5H)-yl)methoxy)-4-((R)-2-methylazepan-1-yl)quinazolin-7-yl)-7-fluorobenzo[b]thio-phene-3-carbonitrile]	6.43		8.06		7.88			6.39
N#Cc1c(N)sc2c(F)ccc(-c3c(Br)cc4c(N5C6COCC5C6)nc(OC[C@@]56CCCN5C[C@H](F)C6)nc4c3F)c12 [Ex. 36, 4-(4-(3-oxa-6-azabicyclo[3.1.1]heptan-6-yl)-6-bromo-8-fluoro-2-(((2R,7aS)-2-fluorotetrahydro-1H-pyrrolizin-7a(5H)-yl)methoxy)quinazolin-7-yl)-2-amino-7-fluorobenzo[b]thiophene-3-carbonitrile]	6.99	7.70	8.03	7.43		< 4.96	< 4.96	
N#Cc1c(N)sc2c(F)ccc(-c3c(Cl)cc4c(N5CCOCCC5C5CC5)nc(OC[C@@]56CCCN5C[C@H](F)C6)nc4c3F)c12 (stereo partly drawn) [compound 17, 2-amino-4-(6-chloro-4-(5-cyclopropyl-1,4-oxazepan-4-yl)-8-fluoro-2-(((2R,7aS)-2-fluorotetrahydro-1H-pyrrolizin-7a(5H)-yl)methoxy)quinazo-lin-7-yl)-7-fluorobenzo[b]thio-phene-3-carbonitrile]	5.65	7.20	6.73	7.29	7.36	< 4.96	< 4.96	
C[C@H]1CCOCCN1c1nc(OC[C@]2(CN(C)C)CC2(F)F)nc2c(F)c(-c3ccc(F)c4sc(N)c(C#N)c34)ncc12 [compound 22, 2-amino-4-(2-(((R)-1-((dimethylamino)meth-yl)-2,2-difluorocyclopropyl)methoxy)-8-fluoro-4-((S)-5-methyl-1,4-oxazepan-4-yl)pyrido[4,3-d]pyrimidin-7-yl)-7-fluorobenzo[b]thiophene-3-carbonitrile]	6.38	7.35	6.60	7.65	7.31	< 4.96	< 4.96	

Further lines, with some results ahead:

pIC50 [1]	pIC50 [2]	pIC50 [3]	pIC50 [4]	pIC50 [5]	pIC50 [6]	pIC50 [7]	SMILES	pIC50 [8]
7.91	8.95	8.63	8.26	8.91	< 4.96	5.93	N#Cc1c(N)sc2c(F)ccc(-c3c(C(F)(F)F)cc4c(N5CCCOCC5)nc(OC[C@@]56CCCN5C[C@H](F)C6)nc4c3F)c12 (single isomer, unassigned) [Ex. 35]	
6.56	8.00	7.60	7.83	8.02	< 4.96	< 4.96	COCC1CCOCCN1c1nc(OC[C@@]23CCCN2C[C@H](F)C3)nc2c(F)c(-c3ccc(F)c4sc(N)c(C#N)c34)c(Cl)cc12 (stereo partly drawn) [compound 16, 2-amino-4-(6-chloro-8-fluoro-2-(((2R,7aS)-2-fluorotetrahydro-1H-pyrrolizin-7a(5H)-yl)methoxy)-4-(5-(methoxymethyl)-1,4-oxazepan-4-yl)quinazolin-7-yl)-7-fluorobenzo[b]thio-phene-3-carbonitrile]	
	6.13	5.60	5.93	6.82	< 4.96	< 4.96	N#Cc1c(N)sc2c(F)ccc(-c3c(Cl)cc4c(N5CCCOCC5)nc(OC[C@]5(CN6CCOCC6)CC5(F)F)nc4c3F)c12 [compound 31, 2-amino-4-(6-chloro-2-(((R)-2,2-difluoro-1-(morpholinomethyl)cy-clopropyl)methoxy)-8-fluoro-4-(1,4-oxazepan-4-yl)quinazolin-7-yl)-7-fluorobenzo[b]thiophene-3-carbonitrile]	
6.52	7.76	7.33	7.52	8.05	< 4.96	< 4.96	CN1CCC[C@H]1COc1nc(N2CCCOCC2)c2cc(Br)c(-c3ccc(F)c4sc(N)c(C#N)c34)c(F)c2n1 [compound 38, 2-amino-4-(6-bromo-8-fluoro-2-(((S)-1-methylpyrrolidin-2-yl)methoxy)-4-(1,4-oxazepan-4-yl)quinazolin-7-yl)-7-fluorobenzo[b]thiophene-3-carbonitrile]	
